SMILES strings stand for the structures. Read-outs that look alike come from different tables or passages of the source. A value given as a limit tells only on which side of the number the result lay.

One test has as its target cyclophilin. As to the kind of experiment: Cis-trans isomerase inhibitory activity (chymotrypsin-coupled Suc-AAPF-pNA cleavage, absorbance 390 nm). In kind it is biochemical. Particulars: cyclophilin, chymotrypsin, Suc-AAPF-pNA; read-out: Test Example 1: cis-trans isomerase inhibitory activity (IC50). The source says:
Chymotrypsin cleaves a trans-type alanine-proline peptide bond. When Suc-AAPF-pNA (a peptide substrate) and chymotrypsin are mixed, the trans-type peptide substrate is cleaved and the cis-type peptide substrate remains. The remaining cis-type peptide substrate is converted into a trans form by a cis-trans isomerase and is then cleaved again by chymotrypsin. When the cis-trans isomerase is present, chymotrypsin is able to cleave a larger amount of trans-type peptide substrate within a predetermined period of time, from which the activity of the cis-trans isomerase may be determined. The amount of the cleaved trans-type peptide substrate is measured using absorbance at 390 nm. Cyclophilin has cis-trans isomerase activity, and accelerates the cleavage of trans-type peptide substrate by chymotrypsin. When the stilbene derivatives of the present invention were treated together with cyclophilin, the cleavage of the peptide substrate by chymotrypsin was not observed to accelerate. Thereby, the stilbene derivatives of the invention can be concluded to inhibit the activity of cyclophilin.

The test system of the next test is hepatitis C virus. The test is described as follows: Antiviral activity in HCV replicon cells (Renilla luciferase). In kind it is cell-based. Particulars: HCV replicon cells, 72 hr, Renilla luciferase, relative to DMSO, read-out: Test Example 3: antiviral activity (EC50). The protocol:
The antiviral activity of the stilbene derivatives on hepatitis C virus was measured. The replicon cells that stably replicate the hepatitis C virus genome were attached to a culture plate and cultured in a CO2 incubator at 37° C. for 24 hr. The replicon cells cultured for one day were washed with a PBS solution, treated with the compounds of the present invention, and then cultured for 72 hr. The stilbene derivative-treated replicon cells were washed with a cold PBS solution and added with 20 μL of a cell lysis solution so that the cells were lysed in ice for 20 min. 100 μL of a Renilla luciferase substrate was added thereto, after which the luminescence thereof was measured and thus the amount of the hepatitis C virus genome was estimated. The amount of the hepatitis C virus genome in the stilbene derivative-treated replicon cells according to the present invention relative to the amount of the hepatitis C virus genome in dimethylsulfoxide (DMSO)-treated replicon cells is shown.
Compounds 1 to 155 of Tables 1 to 10 may be grouped as follows based on the antiviral activity (EC50) values: […]
(In antiviral work, replicon cells carry a viral genome segment that copies itself.)

Test [1] has as its system mitochondria obtained from hepatocytes. The test is described as follows: Inhibitory activity on calcium-induced mitochondrial swelling (absorbance 520 nm). The following applies: calcium-induced swelling of extracted mitochondria, read-out: Test Example 4: inhibiting mitochondrial swelling (IC50). The text has this:
Cyclophilin is a key protein for forming permeability transition pores (PTP) in mitochondria. When permeability transition pores are formed, mitochondria swell, whereby the outer membrane thereof ruptures and thus cell death progresses. Such mitochondrial dysfunction causes many diseases including neurodegenerative diseases, cancer, and the like. Cyclosporine, a known cyclophilin inhibitor, is capable of preventing the formation of permeability transition pores to thus suppress mitochondrial swelling.
The mitochondrial swelling test was performed as follows. Specifically, the hepatocytes were disrupted using a Dounce tissue grinder. The disrupted cells were centrifuged at 700×g for 10 min and the supernatant was transferred into a new tube. The supernatant was centrifuged at 12,000×g for 15 min, thereby obtaining mitochondria.
When the extracted mitochondria were added with calcium, they swelled, which may be observed by measuring the absorbance at 520 nm. The stilbene derivatives are effective at inhibiting mitochondrial swelling due to calcium.
The activity of Compounds 1 to 155 of Tables 1 to 10 on inhibiting mitochondrial swelling may be determined based on IC50 values, and may be grouped as follows: […]

Regarding `Cc1ccc(C(C#N)=Cc2ccccc2N(C)C)cc1` [Compound 1], the IC50 (in general, the concentration needed to halve the response being measured) at cyclophilin was 0.2 to 2 µM; in test [1] (Hepatocyte), 50 to 500 µM. Moreover, the EC50 (usually the concentration at which the effect is half-maximal) in the test with hepatitis C virus (Hepatitis C virus) lay in the range of 5 to 50 µM.

Turning to `CCc1ccc(C(C#N)=Cc2ccccc2C(=O)O)cc1` [Compound 2], the IC50 at cyclophilin lay in the range of 0.2 to 2 µM; in test [1], 50 to 500 µM. In the test with hepatitis C virus, the EC50 is 5 to 50 µM.

In the case of `CCc1ccc(C(C#N)=Cc2ccccc2N(C)C)cc1` [Compound 3], the IC50 at cyclophilin lay within 0.2 to 2 µM; in test [1], 50 to 500 µM. Also, the half-maximal effective concentration (EC50) in the test on hepatitis C virus fell in the range of 5 to 50 µM.

On to `CC(C)c1ccc(C(C#N)=Cc2ccccc2Cl)cc1` [Compound 4], for which the values for the IC50 (on cyclophilin; in test [1] (Hepatocyte)) were 0.2 to 2 µM and 50 to 500 µM, respectively. Moreover, the EC50 with hepatitis C virus (Hepatitis C virus) fell in the range of 5 to 50 µM.

As for `CC(C)c1ccc(C(C#N)=Cc2ccccc2C(=O)O)cc1` [Compound 5], the half-maximal inhibitory concentration (IC50) at cyclophilin was in the range of 0.2 to 2 µM; in test [1] (Hepatocyte), 50 to 500 µM. Also, the EC50 in the test on hepatitis C virus (Hepatitis C virus) was in the range of 5 to 50 µM.

On to `COc1ccccc1C=C(C#N)c1ccc(C(C)C)cc1` [Compound 6], for which the values for the IC50 (on cyclophilin; in test [1] (Hepatocyte)) were 0.2 to 2 µM and 50 to 500 µM, respectively. Besides, the EC50 in the test with hepatitis C virus (Hepatitis C virus) is 5 to 50 µM.

On to `CN(C)c1ccccc1C=C(C#N)c1ccc([N+](=O)[O-])cc1` [Compound 7], for which the IC50 on cyclophilin fell in the range of 0.2 to 2 µM; in test [1] (Hepatocyte) it was 50 to 500 µM. The EC50 in the test on hepatitis C virus (Hepatitis C virus) was 5 to 50 µM.

As for `CCCCc1ccc(C(C#N)=Cc2ccccc2C(=O)O)cc1` [Compound 8], the values for the IC50 (on cyclophilin; in test [1]) were 0.02 to 0.2 µM and 5 to 50 µM, respectively. Further, the EC50 in the test with hepatitis C virus was in the range of 0.5 to 5 µM.

For `CCC(C)c1ccc(C(C#N)=Cc2ccccc2C(=O)O)cc1` (stereo not drawn) [Compound 9], the IC50 at cyclophilin fell in the range of 0.02 to 0.2 µM; in test [1], 5 to 50 µM. Also, the EC50 with hepatitis C virus lay within 0.5 to 5 µM.

In the case of `CC(C)(C)c1ccc(C(C#N)=Cc2ccccc2C(=O)O)cc1` [Compound 10], the values for the IC50 (on cyclophilin; in test [1] (Hepatocyte)) were 0.02 to 0.2 µM and 5 to 50 µM, respectively. Further, in the test with hepatitis C virus (Hepatitis C virus), the 50% effective concentration (EC50) was in the range of 0.5 to 5 µM.

In the case of `COc1ccccc1C=C(C#N)c1ccc(C(C)(C)C)cc1` [Compound 11], the results for the IC50 (on cyclophilin; in test [1] (Hepatocyte)) were 0.2 to 2 µM and 50 to 500 µM, respectively. Further, in the test with hepatitis C virus (Hepatitis C virus), the EC50 fell in the range of 5 to 50 µM.

In the case of `COc1ccccc1C=C(C#N)c1ccc(C)c(C)c1` [Compound 12], the results for the IC50 (at cyclophilin; in test [1] (Hepatocyte)) were 0.2 to 2 µM and 50 to 500 µM, respectively. Besides, the concentration for a half-maximal effect (EC50) in the test with hepatitis C virus (Hepatitis C virus) lay within 5 to 50 µM.

Turning to `Cc1ccc(C(C#N)=Cc2ccccc2C(=O)O)cc1C` [Compound 13], the IC50 on cyclophilin was in the range of 0.2 to 2 µM; in test [1], 50 to 500 µM. In the test with hepatitis C virus, the EC50 is 5 to 50 µM.

On to `COc1ccccc1C=C(C#N)c1ccc(C(=O)C(C)(C)C)cc1` [Compound 14], for which the IC50 on cyclophilin is 0.02 to 0.2 µM; in test [1] (Hepatocyte), 5 to 50 µM. For the same compound, the EC50 in the test on hepatitis C virus (Hepatitis C virus) was in the range of 0.5 to 5 µM.

For the compound `CC(C)(C)C(=O)c1ccc(C(C#N)=Cc2ccccc2C(=O)O)cc1` [Compound 15], the IC50 lay in the range of 0.2 to 2 µM at cyclophilin and 50 to 500 µM in test [1]. In addition, in the test with hepatitis C virus, the EC50 is 5 to 50 µM.

On to `CCOc1ccc(C(C#N)=Cc2ccccc2OC)cc1` [Compound 16], for which the IC50 at cyclophilin was in the range of 0.2 to 2 µM; in test [1] (Hepatocyte), 50 to 500 µM. The EC50 with hepatitis C virus (Hepatitis C virus) is 5 to 50 µM.

In the case of `CCOc1ccc(C(C#N)=Cc2ccccc2C(=O)O)cc1` [Compound 17], the half-inhibitory concentration (IC50) on cyclophilin fell in the range of 0.2 to 2 µM; in test [1], 50 to 500 µM. In addition, in the test on hepatitis C virus, the EC50 is 5 to 50 µM.

In the case of `CCCCOc1ccc(C(C#N)=Cc2ccccc2OC)cc1` [Compound 18], the figures for the IC50 (at cyclophilin; in test [1] (Hepatocyte)) were 0.02 to 0.2 µM and 5 to 50 µM, respectively. Also, the EC50 in the test with hepatitis C virus (Hepatitis C virus) was 0.5 to 5 µM.

Turning to `CCCCOc1ccc(C(C#N)=Cc2ccccc2C(=O)O)cc1` [Compound 19], the IC50 on cyclophilin is 0.02 to 0.2 µM; in test [1], 5 to 50 µM. Also, the EC50 in the test with hepatitis C virus lay within 0.5 to 5 µM.

Take `COc1ccccc1C=C(C#N)c1ccc(Cc2ccccc2)cc1` [Compound 20]: the IC50 is ≤ 0.02 µM at cyclophilin and < 5 µM in test [1] (Hepatocyte). The concentration for a half-maximal effect (EC50) in the test on hepatitis C virus (Hepatitis C virus) is < 0.5 µM.

As to `N#CC(=Cc1ccccc1C(=O)O)c1ccc(Cc2ccccc2)cc1` [Compound 21], the IC50 at cyclophilin is ≤ 0.02 µM; in test [1], < 5 µM. Moreover, the EC50 with hepatitis C virus is < 0.5 µM.

These data come from patent US11286228B2, “Stilbene derivative and method for preparing same” (Ozchela Inc., priority 2016, dated 2022).
